Patent EP1369120B1 (priority 2002, dated 2003)
Values joined by “and” are separate entries in the source; they are usually repeats but may differ in a detail not shown here. Equal values may be shown once. Read-outs that look alike come from different tables or passages of the source.

Tests used:
[1] = test system: Huh-7 cells containing HCV sub-genomic replicons (Ava.5); test: cells; format: cell-based
[2] = test system: HCV sub-genomic replicons (Ava.5); test: microbe, parasite or virus in culture; format: cell-based, hepatitis C virus
HCV = format: cell-based; conditions: 300 nM As2O3 (data not shown)
[3] = huh-7 hcv replicon cells, 1440 min, 1 µM
[4] = huh-7 hcv replicon cells, 4320 min, 0.01 µM
[5] = huh-7 hcv replicon cells, 4320 min, 0.05 µM
[6] = huh-7 hcv replicon cells, 4320 min, 0.1 µM
[7] = huh-7 hcv replicon cells, 4320 min, 1 µM

Row | Compound | IC50 ([1]; Hepatitis C virus, Ava5, 24 h) [µM] | EC50 ([2]; Hepatitis C virus, Ava5, 24 h) [nM] | IC50 ([1]; read-out: IC50) [µM] | inhibition of HCV replication ([2]; 5 µM) | IC50 ([1]; read-out: ICso (concentration which causes 50% cell death)) | inhibition of replication of HCV RNA [2] | negative strand of HCV RNA detected (relative copy number) [2, 3] [%] | positive strand of HCV RNA detected (relative copy number) [2, 3] [%] | relative HCV RNA level (negative strand) [2, 4] [%] | relative HCV RNA level (positive strand) [2, 4] [%] | relative HCV RNA level (negative strand) [2, 5] [%] | relative HCV RNA level (positive strand) [2, 5] [%] | relative HCV RNA level (negative strand) [2, 6] [%] | relative HCV RNA level (positive strand) [2, 6] [%] | negative strand HCV RNA detected (relative copy number) [2, 7] [%] | positive strand RNA detected (relative copy number) [2, 7] [%] | EC50 ([2]; read-out: EC50) | inhibition of the replication (HCV)
1 | O=[As]O [Sodium arsenite] | 10 | 250 |  |  |  |  |  |  |  |  |  |  |  |  |  |  |  | 
2 | Potassium antimony tartrate [Potassium antimony tartrate (PAT)] |  |  | 35 | 75 % inhibition of HCV replication at 5 µM of PAT treatment |  |  |  |  |  |  |  |  |  |  |  |  |  | 
3 | arsenic trioxide [As2O3] |  |  | 6 |  | 8.5 µM and 4.8 µM | dose-dependent manner | 14.1 | 15.6 | 135.3 | 95.1 | 74.3 | 70 | 67.5 | 57.5 | 2.6 | 6.1 | 260 nM and 190 nM and 270 nM and 160 nM and 200 nM | completely
